# Measured values reported in patent EP0217621A2, “Macromolecular tumor cell growth-inhibiting antibiotic” (SMITHKLINE BECKMAN CORPORATION, priority 1985, dated 1987).
# Columns and labels:
# P388 leukemia = assay: in vivo ip P388 leukemia mouse model; design: species or system B6D2F1 mice; details: positive control, 1 mg/kg/day
# Description: P388 lymphocytic leukemia is currently the most widely used animal tumor model for screening for antitumor agents and for detailed evaluation of active compounds. This tumor system is widely accepted as an antitumor agent screening tool because it is sensitive to virtually all of the clinically active antineoplastic agents; quantitative and reproducible: amenable for large-scale screening; and predictive for activity in other animal tumor models. […] Rpts. (Part III), 3, 1-103 (1972)]: • 10^6 P388 leukemia cells are inoculated ip in B6D2F1 mice. Twenty-four hours later, if the tumor inoculum proves to be free of bacterial contamination (as determined by 24 hours incubation in thioglycollate broth), animals are randomized into groups of 6 and housed in shoebox cages. The purified active component of ATCC 53270 was dissolved in 0.9 percent NaCl solution (normal saline) at an appropriate concentration so that the desired dose was delivered in a volume of 0.5 ml. The crude broth of ATCC 53270 was administered undiluted or diluted with normal saline. Such saline solutions were stored in amber bottles at 4°C. The saline solution of the purified active component of ATCC 53270, saline solution of the crude broth of ATCC 53270 or undiluted crude broth of ATCC 53270 are administered ip on Days 1 through 5 (i.e. treatment is initiated 24 hrs after tumor inoculation). […] Animals are weighed as a group on Days 1, 5 and 9 and average weight change (δ wt.) is used as a reflection of toxicity. Each experiment also includes an inoculum titration -- groups of 8 mice inoculated ip with 10^5 to 10^0 P388 leukemia cells. The titration is used to calculate cell kill achieved by treatment with drugs. Animals are monitored daily for mortality and experiments are terminated after 45 days. The endpoint is median survival time (MST) and increase in lifespan (ILS) which is the percentage of increase in MST relative to untreated controls. Untreated controls inoculated ip with 10^6 P388 leukemia cells generally survive for a median of 9 to 11 days. A drug is considered active if it produces > 25 percent ILS.
# ADJ-PC6 Plasmacytoma = assay: in vivo ADJ-PC6 Plasmacytoma tumor model; design: species or system BALB/c female mice
# Method: Likewise, AAC-345, in the form of the crude broth of ATCC 53270 and the purified active component of ATCC 53270, was tested in an additional in vivo tumor model known as ADJ-PC6 Plasmacytoma according to the following assay [see Cleare et al., J. Biochimie, 60, 830-850 (1978)]: • Tumor cells are carried by serial sc passage in BALB/c female mice and then collected aseptically on ca. Day 21 and minced in Hank's balanced salt solution. The cells are then dispersed by homogenizer, and cell concentration is adjusted to 4×10^6 viable (trypan blue-excluding) cells per ml by hemocytometer counts. A total of 0.5 ml (2x10^6 cells) is implanted sc on the right flank of BALB/c female mice in groups of 8. Treatment is given ip on Days 1-10, and tumors are measured in perpendicular diameters with a vernier caliper approximately three (3) weeks after tumor implantation (Days 18-21). Generally, > 75% inhibition of tumor growth reflects significant antitumor effect.
compound,measurement,setting,value
N.N.[Cl][Pt][Cl] [Cisplatin],ILS (increase in lifespan),P388 leukemia; Experiment I,117%
same,Median Survival Time,P388 leukemia; Experiment I,19.5 days
same,Weight Change Day 5,P388 leukemia; Experiment I,-0.2 gm
same,Weight Change Day 9,P388 leukemia; Experiment I,+1.4 gm
same,ILS (increase in lifespan),P388 leukemia; Experiment II,89%
same,Median Survival Time,P388 leukemia; Experiment II,17 days
same,Weight Change Day 5,P388 leukemia; Experiment II,-0.6 gm
same,Weight Change Day 9,P388 leukemia; Experiment II,+1.2 gm
same,TGI (percent of tumor growth inhibition),"ADJ-PC6 Plasmacytoma; Experiment I, 3 mg/kg/day ip Days 1-10, Day 21",100%
same,Mean Tumor Volume,"ADJ-PC6 Plasmacytoma; Experiment I, 3 mg/kg/day ip Days 1-10, measured Day 21",0 ± 0 mm^3
same,tumor growth inhibition,"ADJ-PC6 Plasmacytoma; positive control, general statement in the method",complete tumor growth inhibition
